Test results published in US8772502B2, “Alkylsulfinyl-substituted thiazolide compounds” (Romark Laboratories, L.C., priority 2010, dated 2014).
Several values for one entry are separate records, joined by “and”; a condition that tells them apart may be missing. Identical values can stand only once. Entries after “also recorded” stand apart in the source; their conditions may differ. Like-named read-outs stand apart in the source and are kept apart here.

What was measured:
[1] = Secondary HCV replicon assay, genotype 1B, cytotoxicity (neutral red dye uptake); settings: human
Procedure: (§1) Antiviral activity of test compounds was assessed in a 3-day assay using the stably-expressing HCV replicon cell line, AVA5 (sub-genomic CON1, genotype 1b) [Korba, B. E. et al. Antiviral Res. 77, 56-63 (2008); Blight et al., Science 290, 1972-1974 (2000)] maintained as sub-confluent cultures on 96-well plates as previously described [Okuse et al., Antiviral Research 65, 23-34 (2005)]. Antiviral activity was determined by blot hybridization analysis of intracellular HCV RNA (normalized to the level of cellular B-actin RNA in each culture sample) and cytotoxicity was assessed by neutral red dye uptake after 3 days of treatment. Additional studies were performed using Huh7 cells containing another HCV replicon, H/FL-Neo, a genotype 1a full length construct [Blight et al., J. Virol. 77, 3181-3190 (2003)]. For studies involving human serum, standard culture medium (which contains 10% fetal bovine serum) and assay conditions were maintained.
(§2) EC50, EC90 and CC50 values (±standard deviations [S.D.]) were calculated by linear regression analysis using data combined from all treated cultures (Korba, B. E. et al. Antiviral Res. 77, 56-63 (2008)). […] Selectivity index (S.I.) was calculated as CC50/EC90 for HBV assays and CC50/EC50 for HCV assays.

[2] = tested on: HCV replicon cell line, AVA5; experiment: Primary HCV replicon assay, cytotoxicity (neutral red dye uptake); settings: primary assay; neutral red dye uptake after 3 days
Procedure: as §1, §2

[3] = tested on: HCV replicon cell line, AVA5 (sub-genomic CON1, genotype 1b); experiment: Secondary HCV replicon assay, genotype 1B, antiviral activity; type: cell-based
Procedure: as §1, §2

[4] = tested on: HCV replicon, H/FL-Neo, a genotype 1a full length construct; experiment: Secondary HCV replicon assay, genotype 1A, antiviral activity; type: cell-based
Procedure: as §1, §2

J6/JFH-1 HCV = experiment: Infectious genotype 2a cell culture assay (HCV replication by RT-PCR); type: cell-based; settings: for efficacy with regards to HCV replication: Huh7.5/JFH-1 HCV cell culture system; for inhibition of J6/JFH-1 HCV replication: 1 μM test concentration
Procedure: (§3) Genotype 2a antiviral assays were conducted as previously described [Lindenbach, B. D.; Rice, C. M. et al. Science, 309, 623-626 (2005)]. […] Cell viability was determined using the Calcein assay kit (Biotium, Inc. Hayward, Calif., USA). The alternate method for measuring cell cytotoxicity was via the Guava Technologies ViaCount assay (Millipore) The ViaCount Assay provides rapid and reliable determinations of viability and total cell count. It distinguishes viable and non-viable cells based on differential permeabilities of two DNA-binding dyes in the Guava ViaCount® Reagent. The nuclear dye stains only nucleated cells, while the viability dye brightly stains dying cells. This combination of dyes enables the Guava ViaCount Assay to distinguish viable, apoptotic, and dead cells. Debris is excluded from results based on negative staining with the nuclear dye.
HCV replication levels were determined by RT-PCR on RNA from cell culture supernatants. J6-infected Huh 7.5 cells were seeded in 12-well plates at a density of 2.0E^5 cells/well in 1.5 mL of DMEM supplemented with 10% FBS and 1% Pen/Strep. […] A positive control of IFN-α at concentrations of 10 IU/mL and 50 IU/mL, negative control wells containing mock incubations of DMEM with 1 uL and 10 uL (the same volume of the molecular compounds at 1 uM and 10 uM, respectively) of DMSO was included to rule out nonspecific effects of DMSO on the cells, and J6-infected with only DMEM were used as negative controls. A final control group consisted of un-infected Huh 7.5 cells, plated at the same time and density as the J6-infected cells on a separate plate. 48 hours and 120 hours after incubation with thiazolides, the media was collected and frozen, cells were washed 2× with PBS, and lysed in 500 uL of lysis buffer per well. Following lysis, RNA was extracted from the cells using the RNAqueous-4PCR Kit from Ambion, and the RNA concentration determined using the NanoDrop® machine. Reverse-transcription reactions produced 1.5 μg of cDNA per sample, which was then used for rt-PCR to quantify the HCV viral load in each sample. Analysis of the rt-PCR results generated the fold increases and decreases of the HCV viral load in comparison to untreated J6 cells.

[5] = tested on: HCV replicon cell line, AVA5 (sub-genomic CON1, genotype 1b); experiment: Primary HCV replicon assay, antiviral activity (intracellular HCV RNA); type: cell-based
Procedure: as §1, §2

Huh 7.5 cells = experiment: Cytotoxicity in the infectious genotype 2a cell culture assay; type: cell-based
Procedure: as §3

[6] = Secondary HCV replicon assay, genotype 1A, cytotoxicity (neutral red dye uptake); settings: human
Procedure: as §1, §2

[7] = tested on: HCV replicon cell line, AVA5; experiment: Secondary HCV replicon assay, genotype 1B, cytotoxicity (neutral red dye uptake); settings: secondary assay, genotype 1B; neutral red dye uptake
Procedure: as §1, §2

[8] = cited from earlier work
[9] = tested on: Huh7 cells containing HCV replicon H/FL-Neo; experiment: Secondary HCV replicon assay, genotype 1A, cytotoxicity (neutral red dye uptake); settings: secondary assay, genotype 1A; neutral red dye uptake
Procedure: as §1, §2

cytochrome P450 enzymes = settings: cited from earlier work
cellular esterases = experiment: Metabolic stability of acetate prodrugs under the cell assay conditions; type: in vitro ADME
[10] = Primary HCV replicon assay, cytotoxicity (neutral red dye uptake); settings: human
Procedure: as §1, §2

[11] = Hepatitis C virus, Ava5, primary assay, 2-fold depression of intracellular HCV RNA, read-out: EC50
[12] = Hepatitis C virus, Ava5, primary assay, 10-fold depression of intracellular HCV RNA, read-out: EC90
[13] = primary assay, 2-fold depression of intracellular HCV RNA, read-out: EC50
[14] = primary assay, 10-fold depression of intracellular HCV RNA, read-out: EC90

SMILES | CC50 [2] [µM] | EC50 ([3]; Hepatitis C virus, Ava5) [µM] | EC90 ([3]; Hepatitis C virus, Ava5) [µM] | EC50 ([4]; Hepatitis C virus) [µM] | EC90 ([4]; Hepatitis C virus) [µM] | efficacy with regards to HCV replication (J6/JFH-1 HCV) | inhibition of J6/JFH-1 HCV replication (J6/JFH-1 HCV; genotype G2a) | EC50 [5, 11] [µM] | EC90 [5, 12] [µM] | cytotoxic effect in Huh 7.5 cells (Huh 7.5 cells) | CC50 [7] [µM] | CC50 [9] [µM] | EC50 [5, 13] [µM] | EC90 [5, 14] [µM] | other results
C[S+]([O-])c1csc(NC(=O)c2ccccc2O)n1 (stereo not drawn) [Compound 2, 2-hydroxy-N-(4-(methylsulfinyl)thiazol-2-yl)benzamide] | 63 | 2.2 | 6.1 | 2.8 | > 5 | demonstrated efficacy | shown to inhibit J6/JFH-1HCV replication | 2 | 4.6 | Neither of these compounds showed a cytotoxic effect |  |  |  |  | CC50 at 3 days [1]: > 100 µM; relative potency, % of NTZ (J6/JFH-1 HCV; genotype G2a, at 0.1 μM): 88 % of NTZ; relative activity, % of NTZ (J6/JFH-1 HCV; genotype G2a, at 1 μM): 95 % of NTZ; cytotoxic effect in Huh 7.5 cells (Huh 7.5 cells; listed as analog 2): without being cytotoxic; CC50 at 3 days [6]: > 100 µM
CC(=O)Oc1ccccc1C(=O)Nc1ncc([N+](=O)[O-])s1 [NTZ, Nitazoxanide] | 31 | 0.25 | 0.95 | 0.33 | 1.1 | demonstrated efficacy | shown to inhibit J6/JFH-1HCV replication | 0.21 | 0.98 | without being cytotoxic; also recorded: Neither of these compounds showed a cytotoxic effect | 35 | 49 |  |  | detection in plasma ([8]; after oral 500 mg NTZ tablet): not detected
O=C(Nc1ncc([N+](=O)[O-])s1)c1ccccc1O [TIZ, Tizoxanide] | 15 | 0.19 | 0.92 | 0.23 | 1 |  |  | 0.15 | 0.81 |  | 28 | 27 |  |  | part of an oral dose excreted in feces as TIZ ([8]; oral dose of NTZ, feces): Approximately two-thirds; Maximum serum concentrations of TIZ ([8]; oral, one 500 mg NTZ tablet (Alinia) with food): approximately 10 μg/mL and ~37 μM; elimination half-life of TIZ from plasma ([8]; plasma): approximately 1.5 hours; inhibition of cytochrome P450 enzymes (cytochrome P450 enzymes): does not inhibit
CC(=O)Oc1ccccc1C(=O)Nc1ncc(S(C)(=O)=O)s1 [RM4864] | 20 |  |  |  |  |  |  |  |  |  |  |  | > 10 | > 10 | metabolic stability (hydrolysis to the parent phenolic drug) (cellular esterases): metabolically stable
CC(=O)Oc1ccccc1C(=O)Nc1nc([S+](C)[O-])cs1 (stereo not drawn) [Compound 1, 2-(4-(methylsulfinyl)thiazol-2-ylcarbamoyl)phenyl acetate] |  |  |  |  |  |  |  |  |  |  |  |  |  |  | CC50 at 3 days [10]: > 100 µM; EC50 ([5]; Hepatitis C virus, Ava5): > 10 µM; EC90 ([5]; Hepatitis C virus, Ava5): > 10 µM
CS(=O)(=O)c1cnc(NC(=O)c2ccccc2O)s1 [RM4863] | 43 |  |  |  |  |  |  |  |  |  | > 10 | > 10 | 1.5 | 5.2 | EC50 [3]: 0.9 µM; EC90 [3]: 8.8 µM; EC50 [4]: 0.8 µM; EC90 [4]: 3.4 µM
